Experimental data published in patent US20130295579A1, “METHOD FOR PREPARING INDUCED PLURIPOTENT STEM CELLS AND MEDIUM USED FOR PREPARING INDUCED PLURIPOTENT STEM CELLS” (SHANGHAI INSTITUTE OF MATERIA MEDICA, CHINESE ACADEMY OF …, priority 2010, published 2013).
Entries after “also recorded” stand apart in the source; their conditions may differ.

What was measured:
Format in all cases: cell-based
[1] = tested on: OG2 mouse embryonic fibroblasts; experiment: Four-factor iPS induction, percentage of Oct-GFP+ cells by flow cytometry; conditions: four factors, 10 mM LiCl, day 12, three independent experiments
Protocol: (§1) Retrovirus were produced by transfecting plat-E cells with pMXs retroviral vectors containing the cDNAs of mouse Oct4, Sox2, Klf4 and c-Myc (purchased from Addgene) using Fugene HD (Roche) according to the manufacturer's protocol. After 48 hours, virus-containing supernatants were collected and filtered. The filtered supernatant was supplemented with 8 mg/L of polybrene, and then was used to infect mouse embryonic fibroblasts. The day when adding virus containing supernatants is counted as “day 0”. […]
(§2) The main method for calculating the reprogramming efficiency is the counting of the Oct-GFP^+ cells, including: 1. Using flow cytometry to determine the percentage of Oct-GFP^+ cells in the cell culture, which were infected with four factors for 10 to 12 days or with three factors for 14 to 16 days, or 2. directly counting the Oct-GFP^+ colonies in the wells by using fluorescence microscope.
(§3) a. […] The day of viral infection was counted as “day 0”. […]
c. Using the method described in step a, on day 12, cells were trypsinized and percentage of Oct-GFP^+ cells was determined by using flow cytometry. […]

[2] = tested on: OG2 mouse embryonic fibroblasts; experiment: Three-factor (Oct4, Sox2, Klf4) iPS induction, counting of Oct-GFP+ colonies by fluorescence microscope; conditions: three factors, day 14
Protocol: as §1, §2, §3
b. Using the method described in step a, from day 12, Oct-GFP^+ colonies were observed and counted under an inverted fluorescence microscope every day, and pictures were also taken with a fluorescence microscope.

[3] = tested on: OG2 mouse embryonic fibroblasts; experiment: Four-factor (Oct4, Sox2, Klf4, c-Myc) iPS induction, counting of Oct-GFP+ colonies by fluorescence microscope; conditions: four factors; for number of Oct-GFP+ colonies per well: 96-well plate
Protocol: Retrovirus were produced by transfecting plat-E cells with pMXs retroviral vectors containing the cDNAs of mouse Oct4, Sox2, Klf4 and c-Myc (purchased from Addgene) using Fugene HD (Roche) according to the manufacturer's protocol. After 48 hours, virus-containing supernatants were collected and filtered. The filtered supernatant was supplemented with 8 mg/L of polybrene, and then was used to infect mouse embryonic fibroblasts. The day when adding virus containing supernatants is counted as “day 0”. The fibroblasts infected with the virus were cultured in the mES medium, and iPS colonies were picked from day 14 to the day 18 after infection (four-factor infection experiment) or from day 20 to day 24 after infection (three-factor infection experiment), based on the expression of Oct-GFP and the typical morphology of stem cells.
as §2
a. Same volumes of the viruses carrying Oct4, Sox2, Klf4 or c-Myc were mixed and added to a total of 180,000 OG2 mouse embryonic fibroblasts in one well of a 6-well plate and cells were cultured in DMEM medium supplemented with 10% fetal bovine serum at 37° C. and 5% CO2. The day of viral infection was counted as “day 0”. On day 2, cells were trypsinized and resuspended in the mES medium, and then seeded at a density of 5,000 cells per well onto a 96-well plate pre-seeded with irradiated mouse embryonic fibroblast feeders. The mES medium supplemented with different concentrations of LiCl (0.6 mM, 1.2 mM, 2.5 mM, 5 mM, 10 mM, 20 mM and 40 mM) were used from day 3. On day 6, the medium was replaced with KSR medium supplemented with different concentrations of LiCl (0.6 mM, 1.2 mM, 2.5 mM, 5 mM, 10 mM, 20 mM and 40 mM). On day 8, the medium was replaced with KSR medium again.
b. Using the method described in step a, from day 8, Oct-GFP^+ colonies were observed and counted under an inverted fluorescence microscope every day, and pictures were also taken with a fluorescence microscope. FIG. 2A was representative images of wells in the 96-well plate on day 10, in which there were more GFP^+ colonies in 10 mM LiCl treated well than in untreated well. […] On day 8, GFP^+ colony could barely be observed in control wells, while approximately 10 GFP^+ colonies could be observed in 10 mM LiCl treated wells. On day 10, approximately 20 GFP^+ colonies could be observed in 10 mM LiCl treated wells, with induction efficiency 5 to 6 times of that of control wells'.

[4] = tested on: OG2 mouse embryonic fibroblasts; experiment: Three-factor iPS induction, percentage of Oct-GFP+ cells by flow cytometry; conditions: three factors, 10 mM LiCl, day 16
Protocol: as §1, §2, §3
c. Using the method described in step a, on day 16, cells were trypsinized and the percentage of Oct-GFP^+ cells was determined by using flow cytometry.

**Q.** What does the source list for `[Cl-].[Li+]` [LiCl, lithium chloride]?
**A.** induction efficiency increase versus wells without treatment (flow cytometry) [1]: 5 to 6 times; induction efficiency of iPS cells versus control groups (colony count) ([2]; 5 mM or 10 mM LiCl): enhanced; also recorded: significantly improved; induction efficiency increase versus control groups (colony count) ([2]; 10 mM LiCl): approximately 7 times; number of Oct-GFP+ colonies per well ([3]; 10 mM LiCl, day 8 after infection): approximately 10; induction efficiency relative to control wells (colony count) ([3]; 10 mM LiCl, day 10): 5 to 6 times; number of Oct-GFP+ colonies per well ([3]; 10 mM LiCl, day 10 after infection): approximately 20; most effective dose of LiCl (number of positive colonies) ([3]; tested 0.6-40 mM): 10 mM; increase of percentage of Oct-GFP+ cells versus control groups [4]: approximately 60 times; percentage of Oct-GFP+ cells [4]: 14.5%
